Key:
HCV genotype 1b replicon = HCV genotype 1b replicon assay (Renilla luciferase readout); format: cell-based, hepatitis C virus; conditions: for Genotype 1b: HCV genotype 1b replicon; for EC50: Hepatitis C virus, read-out: Genotype 1b
From the text: Assay 1: HCV Genotype 1b Replicon Assay
The HCV genotype 1b replicon cell line was obtained from Apath LLC (Brooklyn, N.Y.) (APC144; Huh7 cell background). This subgenomic replicon contains the N-terminus of the HCV core protein fused to the neomycin-resistance selectable marker. The EMCV IRES lies downstream and drives expression of humanized Renilla luciferase fused to the non-structural proteins NS3-NS5B. This cell line was used to determine compound potency using the luciferase activity readout as a measurement of compound inhibition of replicon levels.
Cells were grown at 37° C. in a 5% CO2 humidified incubator in DMEM (Invitrogen) with 10% FBS (HyClone), 1×NEAA (Invitrogen), 1× Pen-Strep (Invitrogen), and 500 μg/mL G418 (Invitrogen). On day 1 of the assay, cells were plated at 10,000 cells/well in white 96-well tissue culture plates (Costar) in 200 μL media lacking G418. Four hours later, once the cells have adhered, the media was removed and replaced with media (no G418) containing dose-responses of test compounds. Compounds were initially diluted in DMSO and then diluted another 200× in media to bring the final DMSO concentration down to 0.5%. The cells were incubated with test compounds for 48 hours. At the end of the incubation period, media and compound were removed from the plates and the luciferase activity was determined using Promega Renilla-Glo reagents.
To analyze the data, the luciferase activity was plotted vs. the compound concentration, and EC50 values were determined from a 4-parameter robust fit model with the GraphPad Prism software package (GraphPad Software, Inc., San Diego, Calif.). Results are expressed as the negative decadic logarithm of the EC50 value, pEC50.
Test compounds having a higher pEC50 value in this assay show greater inhibition of HCV genotype 1b replication.

HCV genotype 1a replicon = HCV genotype 1a replicon assay (NS3 protease activity readout); format: cell-based, hepatitis C virus; conditions: for Genotype 1a: HCV genotype 1a replicon; for EC50: Hepatitis C virus, read-out: Genotype 1a, HCV genotype 1a replicon
Procedure, shortened: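 Genotype 1a subgenomic replicon cells (APC89, Huh7.5) were treated with compound dose-responses in G418-free medium, 0.5% DMSO final, for 48 or 72 hours at 37° C. Lysate NS3/4a protease activity measured with 15 μM FRET substrate, 20 min at 37° C (ex 340/em 509 nm); EC50 by 4-parameter fit.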

Compound	Genotype 1b (HCV genotype 1b replicon)	Genotype 1a (HCV genotype 1a replicon)	EC50 (HCV genotype 1b replicon) [nM]	EC50 (HCV genotype 1a replicon) [nM]
COC(=O)N[C@H](C(=O)N1C[C@@H](C)C[C@H]1c1nc(-c2ccc(-c3cc(Cl)c(NC(=O)c4ccc(N5C[C@H](C)N(C(=O)C6CC6)C[C@H]5C)nc4)cc3OC(F)(F)F)cc2)c[nH]1)C(C)C [Example 1-43]	D (D represents pEC50>10 (EC50<0.1 nM))	D (D represents pEC50>10 (EC50<0.1 nM))		
COC(=O)NC(C(=O)N1CC(OC)CC1c1nc(-c2ccc(-c3cc(F)c(NC(=O)c4ccc(N5CCN(C(=O)C(C)(C)CO)CC5C)nc4)cc3OC(F)(F)F)cc2)c[nH]1)C(C)OC (stereo not shown) [Example 16-13]	D (D represents pEC50>10 (EC50<0.1 nM))	D (D represents pEC50>10 (EC50<0.1 nM))		
COC(=O)N[C@H](C(=O)N1C[C@@H](OC)C[C@H]1c1nc(-c2ccc(-c3cc(Cl)c(NC(=O)c4ccc(N5CCN(C(=O)[C@H]6CC6(C)C)C[C@H]5C)nc4)cc3OC(F)(F)F)cc2)c[nH]1)C(C)C [Example 27-1]	D (D represents pEC50>10 (EC50<0.1 nM))	D (D represents pEC50>10 (EC50<0.1 nM))		
COC(=O)N[C@H](C(=O)N1C[C@@H](C)C[C@H]1c1nc(-c2ccc(-c3cc(Cl)c(NC(=O)c4ccc(N5CCN(C(=O)c6nccn6C)C[C@H]5C)nc4)cc3OC(F)(F)F)cc2)c[nH]1)C(C)C [Example 1-36]	D (D represents pEC50>10 (EC50<0.1 nM))	D (D represents pEC50>10 (EC50<0.1 nM))		
COC(=O)N[C@H](C(=O)N1C[C@@H](C)C[C@H]1c1nc(-c2ccc(-c3cc(Cl)c(NC(=O)c4ccc(N5C[C@H](C)N(C(=O)[C@H]6CC6(C)C)C[C@H]5C)nc4)cc3OC(F)(F)F)cc2)c[nH]1)C(C)C [Example 1-20]	D (D represents pEC50>10 (EC50<0.1 nM))	D (D represents pEC50>10 (EC50<0.1 nM))		
COC(=O)N[C@H](C(=O)N1C[C@@H](C)C[C@H]1c1nc(-c2ccc(-c3cc(F)c(NC(=O)c4ccc(N5CCN(C(=O)C(C)(C)CO)C[C@H]5C)nc4)cc3OC(F)(F)F)cc2)c[nH]1)C(C)C [Example 1-101]	D (D represents pEC50>10 (EC50<0.1 nM))	D (D represents pEC50>10 (EC50<0.1 nM))		
COC(=O)N[C@H](C(=O)N1C[C@@H](C)C[C@H]1c1nc(-c2ccc(-c3ccc(C(=O)Nc4ccc(N5CCN(C(=O)C(C)(C)C)C[C@H]5C)nc4)cc3)cc2)c(Cl)[nH]1)C1CCOCC1 [Example 22-10]	D (D represents pEC50>10 (EC50<0.1 nM))	D (D represents pEC50>10 (EC50<0.1 nM))		
COC(=O)N[C@H](C(=O)N1C[C@@H](C)C[C@H]1c1nc(-c2ccc(-c3ccc(C(=O)Nc4ccc(N5C[C@H](C)N(C(=O)C6CC6)C[C@H]5C)nc4)cc3OC(F)(F)F)cc2)c[nH]1)C(C)C [Example 4-16]	D (D represents pEC50>10 (EC50<0.1 nM))	C (C represents pEC50 between and 9 and about 10, (EC50 between 1 nM and 0.1 nM))		
COC(=O)N[C@H](C(=O)N1C[C@@H](C)C[C@H]1c1nc(-c2ccc(-c3cc(Cl)c(NC(=O)c4ccc(N5CCN(C(=O)C(C)(C)CO)C[C@H]5C)nc4)cc3OC(F)(F)F)cc2)c[nH]1)C(C)(C)O [Example 13-16]			< 0.1	< 0.1
COC(=O)N[C@H](C(=O)N1C[C@@H](C)C[C@H]1c1nc(-c2ccc(-c3cc(Cl)c(NC(=O)c4ccc(N5C[C@H](C)N(C(=O)c6c[nH]cn6)C[C@H]5C)nc4)cc3OC(F)(F)F)cc2)c[nH]1)C(C)C [Example 1-19]	D (D represents pEC50>10 (EC50<0.1 nM))	D (D represents pEC50>10 (EC50<0.1 nM))		
COC(=O)N[C@H](C(=O)N1C[C@@H](C)C[C@H]1c1nc(-c2ccc(-c3cc(Cl)c(C(=O)Nc4ccc(N5CCN(C(=O)C(C)(C)C)C[C@H]5C)nc4)cc3OC(F)(F)F)cc2)c[nH]1)C(C)C [Example 4-46]	D (D represents pEC50>10 (EC50<0.1 nM))	D (D represents pEC50>10 (EC50<0.1 nM))		
COC(=O)NC(C(=O)N1CC(OC)CC1c1nc(-c2ccc(-c3cc(Cl)c(NC(=O)c4ccc(N5CCN(C(=O)C(C)(C)CO)CC5C)nc4)cc3OC(F)(F)F)cc2)c[nH]1)C(C)O (stereo not shown) [Example 16-7]	D (D represents pEC50>10 (EC50<0.1 nM))	D (D represents pEC50>10 (EC50<0.1 nM))		
COC(=O)N[C@H](C(=O)N1C[C@@H](C)C[C@H]1c1nc(-c2ccc(-c3cc(Cl)c(NC(=O)c4ccc(N5CCN(C(=O)C(C)(C)C)[C@@H](C)C5)nc4)cc3OC(F)(F)F)cc2)c[nH]1)C1CCOCC1 [Example 20-5]	D (D represents pEC50>10 (EC50<0.1 nM))	D (D represents pEC50>10 (EC50<0.1 nM))		
COC(=O)N[C@H](C(=O)N1C[C@@H](C)C[C@H]1c1nc(-c2ccc(-c3cc(F)c(NC(=O)c4ccc(N5CCN(C(=O)C6CC6)C[C@H]5C)nc4)cc3OC(F)(F)F)cc2)c[nH]1)C(C)C [Example 1-3]	D (D represents pEC50>10 (EC50<0.1 nM))	D (D represents pEC50>10 (EC50<0.1 nM))		
COC(=O)N[C@H](C(=O)N1C[C@@H](C)C[C@H]1c1nc(-c2ccc(-c3cc(Cl)c(NC(=O)c4ccc(N5CCN(C(=O)C(C)(C)CO)C[C@H]5C)nc4)cc3OC(F)(F)F)cc2)c(CO)[nH]1)C1CCOCC1 [Example 20-3]	D (D represents pEC50>10 (EC50<0.1 nM))	D (D represents pEC50>10 (EC50<0.1 nM))		
COC[C@H]1CN(c2ccc(NC(=O)c3cc(OC(F)(F)F)c(-c4ccc(-c5c[nH]c([C@@H]6C[C@H](C)CN6C(=O)[C@@H](NC(=O)OC)C6CCOCC6)n5)cc4)cc3Cl)cn2)CCN1C(=O)C(C)(C)C [24-4]	D (D represents pEC50>10 (EC50<0.1 nM))	C (C represents pEC50 between and 9 and about 10, (EC50 between 1 nM and 0.1 nM))		
CNC(=O)N1CCN(c2ccc(C(=O)Nc3ccc(-c4ccc(-c5c[nH]c([C@@H]6C[C@H](N(C)C)CN6C(=O)[C@@H](NC(=O)OC)C(C)C)n5)cc4)c(C)c3)cn2)[C@H](C)C1 [Example 2-5]	D (D represents pEC50>10 (EC50<0.1 nM))	C (C represents pEC50 between and 9 and about 10, (EC50 between 1 nM and 0.1 nM))		
COC(=O)N[C@H](C(=O)N1C[C@@H](C)C[C@H]1c1nc(-c2ccc(-c3cc(Cl)c(NC(=O)c4ccc(N5CCN(C(=O)C(C)(C)C)C[C@@H]5C)nc4)cc3OC(F)(F)F)cc2)c[nH]1)C1CCOCC1 [Example 20-4]	D (D represents pEC50>10 (EC50<0.1 nM))	D (D represents pEC50>10 (EC50<0.1 nM))		
COC(=O)N[C@H](C(=O)N1C[C@@H](C)C[C@H]1c1nc(-c2ccc(-c3cc(Cl)c(NC(=O)c4ccc(N5CCN(C(=O)C(C)(C)C)C[C@H]5C)nc4)cc3OC(F)(F)F)cc2)c(F)[nH]1)C(C)C [Example 5-8]			< 0.1	< 0.1
COC(=O)N[C@H](C(=O)N1C[C@@H](C)C[C@H]1c1nc(-c2ccc(-c3cc(F)c(NC(=O)c4ccc(N5CCN(C(=O)C(C)(C)C)C[C@H]5C)nc4)cc3OC(F)(F)F)cc2)c[nH]1)[C@H](C)OC [Example 13-21]			< 0.1	< 0.1
COC(=O)N[C@H](C(=O)N1C[C@@H](C)C[C@H]1c1nc(-c2ccc(-c3cc(F)c(NC(=O)c4ccc(N5CCN(C(=O)C(C)(C)C)C[C@H]5C)nc4)cc3OC(F)(F)F)cc2)c[nH]1)C1CCOCC1 [Example 13-22]			< 0.1	< 0.1
COC(=O)NC(C(=O)N1C[C@@H](C)C[C@H]1c1nc(-c2ccc(-c3ccc(C(=O)Nc4ccc(N5CCN(C(=O)C(C)(C)C)C[C@H]5C)nc4)c(F)c3OC(F)(F)F)cc2)c[nH]1)C1CCOCC1 (stereo partly shown) [Example 25-2]			< 0.1	< 0.1
COC(=O)N[C@H](C(=O)N1C[C@@H](O)C[C@H]1c1nc(-c2ccc(-c3ccc(NC(=O)c4ccc(N5CCN(C(=O)[C@]6(C)CCCN6C(=O)OC)C[C@H]5C)nc4)cc3)cc2)c[nH]1)C(C)C [Example 5]			< 0.1	0.1 to 1
COC(=O)N[C@H](C(=O)N1C[C@@H](C)C[C@H]1c1nc(-c2ccc(-c3ccc(C(=O)Nc4ccc(N5C[C@H](C)N(C(=O)C6CC6C)C[C@H]5C)nc4)cc3OC(F)(F)F)cc2)c[nH]1)C(C)C (stereo partly shown) [Example 4-17]	D (D represents pEC50>10 (EC50<0.1 nM))	C (C represents pEC50 between and 9 and about 10, (EC50 between 1 nM and 0.1 nM))		
COC(=O)N[C@H](C(=O)N1C[C@@H](OC)C[C@H]1c1nc(-c2ccc(-c3cc(F)c(NC(=O)c4ccc(N5CCN(C(=O)C(C)(C)C)C[C@H]5C)nc4)cc3OC(F)(F)F)cc2)c[nH]1)C1CCOCC1 [Example 28-1]	D (D represents pEC50>10 (EC50<0.1 nM))	D (D represents pEC50>10 (EC50<0.1 nM))		
COC(=O)N[C@H](C(=O)N1C[C@@H](C)C[C@H]1c1nc(-c2ccc(-c3cc(Cl)c(NC(=O)c4ccc(N5CCN(C(=O)C67CC(CO)(C6)C7)C[C@H]5C)nc4)cc3OC(F)(F)F)cc2)c[nH]1)C(C)C [Example 12-50]			< 0.1	< 0.1

Source: patent US9212168B2 (priority 2011, dated 2015)
